From EP4682173A1, “METHOD FOR PRODUCING RADIOLABELED ANTIBODY, RADIOLABELED ANTIBODY, AND RADIOACTIVE MEDICINE” (Kagoshima University, priority 2023, dated 2024)

Tested on: EGFR
Assay: Test Example 7: antigen binding activity by in vitro ARG (^89Zr-labeled Pmab)
Parameters: species or system human
Conditions: day after production

binding activity for EGFR: confirmed
Substance: Comparative Example 3: ^89Zr-panitumumab conjugate (monovalent) by the CCAP method
